Source: patent publication US20250188075A1, “SUBSTITUTED HETEROCYCLIC CSNK1 INHIBITORS” (The Broad Institute, Inc., priority 2022, published 2025)
Like-named read-outs stand apart in the source and are kept apart here.

Legend:
[1] = target: human CSNK1G3 (Homo sapiens (Human), UniProt Q9Y6M4); test: CSNK1G3 assay (ADP-Glo); type: biochemical; conditions: median, read-out: CSNK1G IC50 [mol/l] (median)
Procedure: CSNK1G3-inhibitory activity of compounds of the present invention in presence of 1 μM adenosine-tri-phosphate (ATP) was quantified employing the CSNK1G3 assay as described in the following paragraphs. In essence, the enzyme activity is measured by quantification of the adenosine-di-phosphate (ADP), which is generated as a co-product of the enzyme reaction, via the “ADP-Glo™ Kinase Assay” kit from the company Promega. This detection system works as follows: In a first step the ATP not consumed in the kinase reaction is quantitatively converted to CAMP employing an adenylate cyclase (“ADP-Glo-reagent”), then the adenylate cyclase is stopped and the ADP generated in the kinase reaction converted to ATP which generates in a luciferase-based reaction a glow-luminescence signal (“Kinase Detection Reagent”).
Recombinant fusion protein of N-terminal Glutathion-S-Transferase (GST) and full-length human CSNK1G3, expressed by baculovirus infected insect cells and purified via Glutathion affinity chromatography, was purchased from Life Technologies (product no. PV3838) and used as enzyme. As substrate for the kinase reaction the biotinylated peptide biotin-Ahx-KRRRAL-pS-VASLPGL (C-terminus in amide form) was used which can be purchased e.g. from the company Biosyntan (Berlin-Buch, Germany).
For the assay 50 nl of a 100 fold concentrated solution of the test compound in DMSO was pipetted into a white 1536-well microtiter plate (Greiner Bio-One, Frickenhausen, Germany), 2 μL of a solution of CSNK1G3 in aqueous assay buffer [50 mM HEPES pH 7.5, 10% (v/v) glycerol, 10 mM MgCl2, 50 mM NaCl, 1 mM dithiothreitol, 0.01% (w/v) bovine serum albumin, 0.01% (v/v) Triton X-100] were added and the mixture was incubated for 15 min at 22° C. to allow pre-binding of the test compounds to the enzyme before the start of the kinase reaction. Then the kinase reaction was started by the addition of 3 μL of a solution of ATP ([…]=>final conc. in the 5 μL assay volume is 1 M) and peptide substrate (50 μM=>final conc. in the 5 μL assay volume is 30 μM) in assay buffer and the resulting mixture was incubated for a reaction time of 30 min at 22° C. The concentration of CSNK1G3 was adjusted depending of the activity of the enzyme lot and was chosen appropriate to have the assay in the linear range, a typical concentration is about 0.06 ng/μL. The reaction was stopped by the addition of 2.5 μL of “ADP-Glo-reagent” (1:1.5 fold diluted with water) and the resulting mixture was incubated at 22° C. for 1 h to convert the ATP not consumed in the kinase reaction completely to CAMP. Subsequently 2.5 μL of the “kinase detection reagent” (1.2 fold more concentrated than recommended by the producer) were added, the resulting mixture was incubated at 22° C. for 1 h and then the luminescence measured with a suitable measurement instrument (e.g. Viewlux™ from Perkin-Elmer). The amount of emitted light was taken as a measure for the amount of ADP generated and thereby for the activity of the CSNK1G3.
The data were normalised (enzyme reaction without inhibitor=0% inhibition, all other assay components but no enzyme=100% inhibition).

[2] = tested on: total-p53 in MCF-7 cells; test: HTRF total-p53 in MCF-7 cells; type: cell-based; conditions: median, read-out: HTRF total-p53 MCF-7, IC50 - [mol/l] (median)
Procedure: Day 1: MCF-7 cells were seeded (10,000 cells in 12 μl/well) in a 384-well-Small Volume-plate (Greiner Bio One #784075) in culture medium (RPMI 1640; (Biochrom; #F 1275; without PhenolRed)+FCS (final: 10%); (Biochrom; #S 0415)+Insulin (bovine); (final: 10 μg/mL, Biochrom; #K 3510)+L-Alanyl-L-Glutamine; (final: 2 mM, Biochrom; #K 0302)+Natriumpyruvat; (final: 1 mM, Biochrom; #L 0473)+Non Essentiell Amino Acids; (final: 1×, Biochrom; #K 0293)). The cells were then treated with different compounds or DMSO (added with the HP Dispenser) and incubated for 2 h at 37° C. Following incubation, the cells were lysed in 4 μl of lysis buffer for 1 h shaking at RT. Finally, 4 μl of antibody solution was added and the samples are incubated overnight at RT, shaking.
Total-p53 was detected in a sandwich assay format using 2 different specific antibodies, one labeled with Eu3+-Cryptate (donor) and the second with d2 (acceptor). Kit: HTRF total p53 detection assay (Cisbio Cat: 64T53PEG).
Day 2: the plate was read on PHERAstar FS (BMG Labtech settings; optic module: HTRF; integration start: 60 us; integration time: 400 μs; flash lamp). IC50 values were calculated using the DRC application in ShiNy Analysis Platform-SNAP.”

[3] = tested on: LoVo cells; test: LoVo cell proliferation assay, CTG method; type: cell-based; conditions: 96 h, median, read-out: 2D-PROLI LoVo CTG 96 h, IC50 - [mol/l] (median)
Procedure: CELL PROLIFERATION ASSAY CTG METHOD, 384-well version: Day 1: plate 400 cells/30 μL/well in growth medium (RPMI 1640 (Gibco #61870-10; with Glutamax)+10% FBS) in 384-well black plates (Corning #3571). Plated sister wells in a separate plate for time zero determination. Incubated all plates overnight at 37° C. Day 2: added test compounds in serial dilutions using the HP D300 Digital Dispenser and incubate at 37° C. for 96 h. Measured time zero plate: add 30 μL/well CTG solution (Promega CellTiter-Glo solution (catalog #G7573)) to wells in time zero plate; incubated for 2 minutes in a orbital shaker to induce cell lysis; allowed the plate to incubate at room temperature for additional 10 min to stabilize luminescent signal and read luminescence on PheraStar (rapid mode-0.02 sec/well; GAIN 3000). Day 6: Added 30 μL/well CTG solution to all test wells, incubated for 2 minutes in a orbital shaker to induce cell lysis; allowed the plate to incubate at room temperature for additional 10 min to stabilize luminescent signal and read luminescence on PheraStar (rapid mode-0.02 sec/well; GAIN 3000). Proliferation IC50s were calculated using the DRC application in ShiNy Analysis Platform-SNAP.”

[4] = Homo sapiens, MCF7, 2 h incubation

human CSNK1G3, sequence (Q9Y6M4 whole entry): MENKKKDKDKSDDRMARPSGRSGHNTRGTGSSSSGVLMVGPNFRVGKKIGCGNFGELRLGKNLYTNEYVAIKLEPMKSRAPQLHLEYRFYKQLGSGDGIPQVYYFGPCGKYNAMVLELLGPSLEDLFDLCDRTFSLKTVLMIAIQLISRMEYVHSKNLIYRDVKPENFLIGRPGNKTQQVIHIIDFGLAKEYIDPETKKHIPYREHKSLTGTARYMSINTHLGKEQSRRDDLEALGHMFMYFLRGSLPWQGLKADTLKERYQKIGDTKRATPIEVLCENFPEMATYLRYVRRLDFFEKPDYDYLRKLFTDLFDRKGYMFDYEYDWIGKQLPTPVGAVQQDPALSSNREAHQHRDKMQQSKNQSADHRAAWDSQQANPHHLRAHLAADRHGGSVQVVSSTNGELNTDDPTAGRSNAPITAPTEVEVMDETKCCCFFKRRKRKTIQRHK

| IC50 [1] [nM] | IC50 [2, 4] [nM] | IC50 ([3]; Homo sapiens) [nM] | IC50 ([2]; 2 h incubation) [nM] | IC50 [3] [nM] | SMILES |
| --- | --- | --- | --- | --- | --- |
| 74.5 | 924 | 7430 | – | – | Cn1cnc(CC(=O)Nc2cc(-c3[nH]c4cccnc4c3-c3ccccn3)ccn2)c1 [Example 5, 2-(1-methylimidazol-4-yl)-N-[4-[3-(2-pyridyl)-^1H-pyrrolo[3,2-b]pyridin-2-yl]-2-pyridyl]acetamide] |
| 39.9 | 174 | 2380 | – | – | Cc1ncc(CC(=O)Nc2cc(-c3[nH]c4cccnc4c3-c3ccccn3)ccn2)o1 [Example 24, 2-(2-methyloxazol-5-yl)-N-[4-[3-(2-pyridyl)-^1H-pyrrolo[3,2-b]pyridin-2-yl]-2-pyridyl]acetamide] |
| 7.89 | 41 | 177 | – | – | O=C(Cc1cnc2ccccc2n1)Nc1cc(-c2[nH]c3cccnc3c2-c2ccccn2)ccn1 [Example 6, N-[4-[3-(2-pyridyl)-^1H-pyrrolo[3,2-b]pyridin-2-yl]-2-pyridyl]-2-quinoxalin-2-yl-acetamide] |
| 71.7 | 193 | 12400 | – | – | O=C(Cc1cnc2ccccn12)Nc1cc(-c2[nH]c3cccnc3c2-c2ccccn2)ccn1 [Example 1, 2-imidazo[1,2-a]pyridin-3-yl-N-[4-[3-(2-pyridyl)-^1H-pyrrolo[3,2-b]pyridin-2-yl]-2-pyridyl]acetamide] |
| 28.6 | 152 | 3140 | – | – | Cc1cc(CC(=O)Nc2cc(-c3[nH]c4cccnc4c3-c3ccccn3)ccn2)on1 [Example 13, 2-(3-methylisoxazol-5-yl)-N-[4-[3-(2-pyridyl)-^1H-pyrrolo[3,2-b]pyridin-2-yl]-2-pyridyl]acetamide] |
| 35.4 | 143 | 3750 | – | – | Cc1cc(CC(=O)Nc2cc(-c3[nH]c4cccnc4c3-c3ccccn3)ccn2)n(C)n1 [Example 14] |
| 14.8 | 184 | 1370 | – | – | O=C(Cc1ccn(CC(F)(F)F)n1)Nc1cc(-c2[nH]c3cccnc3c2-c2ccccn2)ccn1 [Example 20, N-[4-[3-(2-pyridyl)-^1H-pyrrolo[3,2-b]pyridin-2-yl]-2-pyridyl]-2-[1-(2,2,2-trifluoroethyl)pyrazol-3-yl]acetamide] |
| 27 | 119 | 2000 | – | – | O=C(Cc1ccns1)Nc1cc(-c2[nH]c3cccnc3c2-c2ccccn2)ccn1 [Example 22, 2-isothiazol-5-yl-N-[4-[3-(2-pyridyl)-^1H-pyrrolo[3,2-b]pyridin-2-yl]-2-pyridyl]acetamide] |
| 2.4 | – | – | 72.4 | 115 | O=C(Nc1cc(-c2[nH]c3ccc(F)nc3c2-c2ccccn2)ccn1)[C@@H](CC(F)F)c1ccc(F)cc1 [Example C2, reference compound] |
| 39.1 | 184 | 363 | – | – | Cc1nc(CC(=O)Nc2cc(-c3[nH]c4cccnc4c3-c3ccccn3)ccn2)cs1 [Example 3, 2-(2-methylthiazol-4-yl)-N-[4-[3-(2-pyridyl)-^1H-pyrrolo[3,2-b]pyridin-2-yl]-2-pyridyl]acetamide] |
| 64.4 | 321 | 2110 | – | – | Cc1nc(CC(=O)Nc2cc(-c3[nH]c4cccnc4c3-c3ccccn3)ccn2)co1 [Example 25, 2-(2-methyloxazol-4-yl)-N-[4-[3-(2-pyridyl)-^1H-pyrrolo[3,2-b]pyridin-2-yl]-2-pyridyl]acetamide] |
| 27.4 | 199 | 782 | – | – | Cn1nc(CC(=O)Nc2cc(-c3[nH]c4cccnc4c3-c3ccccn3)ccn2)cc1C1CC1 [Example 29, 2-(5-cyclopropyl-1-methyl-pyrazol-3-yl)-N-[4-[3-(2-pyridyl)-^1H-pyrrolo[3,2-b]pyridin-2-yl]-2-pyridyl]acetamide] |
